In PubChem BioAssay (NCI):
“And” between values parts separate entries of the source, which are not always exact repeats. Identical values can stand only once.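 A five-concentration, 48-hour dose response in 96-well plates underlies each endpoint, interpolated linearly between surrounding concentrations. GI50: concentration for 50% inhibition of growth. TGI denotes the concentration required for complete inhibition of growth.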

What follows are molecules tested on MDA-MB-468 breast (assay: DTP human tumour cell line panel, 48 h).
Work on O=C(CCN1CCOCC1)Nc1ccc(Cn2nnc3c2C(=O)c2nnn(Cc4ccc(NC(=O)CCN5CCOCC5)cc4)c2C3=O)cc1 yielded a GI50 of 0.257 µM and a TGI of 0.627 µM. Cc1cccc(Oc2ccc(Nc3ncnc4ccc(NC(=O)CN(C)C)cc34)cc2Cl)c1 was tested, and the GI50 was 0.18 µM and the TGI was 1.38 µM. For O=S(=O)(Nc1ccccc1)c1ccc(C2CC3(Cl)C(Cl)=C(Cl)C2(Cl)C3(Cl)Cl)cc1 (configuration not stated), the GI50 was 2.64 µM and the TGI was 7.86 µM. In the case of CCN(CC)CCn1c2ccc(O)cc2c2sc3cc(OC)ccc3c(=O)c21, the GI50 was 1.54 µM and the TGI was 3 µM. O=C(NO)c1ccc(CNc2cccc3nc(C4CC4)n(-c4ccccc4)c(=O)c23)cc1 gave a GI50 of 1.88 µM and a TGI of 5.16 µM. Work on CN(C)CCCC1(c2ccc(F)cc2)OCc2cc(-c3csc4ccccc34)ccc21 (configuration not stated) yielded a GI50 of 1.54 µM and a TGI of 3.12 µM. Work on CN(C)[C@@H]1C(=O)C(C(=O)NCc2nc3[nH]cnc(=S)c3[nH]2)=C(O)[C@@]2(O)C(=O)C3=C(O)c4c(O)cccc4[C@@](C)(O)[C@H]3C[C@@H]12 yielded a GI50 of 0.955 µM and a TGI of over 100 µM. For O=C1C[C@@H]2OCC=C3C[N+]4([O-])CC[C@]56c7ccccc7N1[C@H]5[C@H]2[C@H]3C[C@@H]64 (some centres not stated), the GI50 was over 100 µM and the TGI was over 100 µM. With O=[N+]([O-])c1ccc(N/N=C\c2cc(Br)ccc2O)nc1 the GI50 was 1.71 µM and the TGI was 4.32 µM. For CNCc1cccc2c1OCCOCCOCCNS(=O)(=O)c1ccc(cc1)-c1cnc(N)c(n1)C(=O)N2, the GI50 was 1.51 µM and the TGI was 3.25 µM. For CC1=C(C(=O)Nc2ccc3[nH]ncc3c2)C(c2ccc(F)cc2)N=C(c2ccc(C(F)(F)F)nc2)N1 (configuration not stated), the GI50 was 5.65 µM and the TGI was 15.5 µM. In the case of CN(C)c1ccc(/C=N/N=C(\C#N)[S][Sn]([Cl])([c]2ccccc2)[c]2ccccc2)cc1, the GI50 was 0.48 µM and the TGI was 2 µM. COc1ccccc1CNCCCN1C(=O)c2ccc3c4c(ccc(c24)C1=O)C(=O)N(CCCNCc1ccccc1OC)C3=O showed a GI50 of 0.138 µM and a TGI of 0.288 µM. For COc1ccc(Cn2c(Br)c3c(c2-c2cc(OC)c(OC)c(OC)c2)CCc2sc(N)nc2-3)cc1, the GI50 was 3.13 µM and the TGI was 41.9 µM. Work on CC[C@]12C=CCN3CC[C@@]4(c5ccc(OC)cc5N(C)[C@H]4[C@@](O)(C(=O)OC)[C@@H]1OC(=O)CCCN1CCN(CCCC(=O)O[C@@H]4[C@]5(CC)C=CCN6CC[C@@]7(c8ccc(OC)cc8N(C)[C@H]7[C@@]4(O)C(=O)OC)[C@@H]65)CC1)[C@@H]32 yielded a GI50 of 0.252 µM and a TGI of 0.73 µM. Oc1ccc(CSc2nnc(-c3ccc(Oc4ccccc4)cc3)o2)c2cccnc12 showed a GI50 of 1.76 µM and a TGI of over 100 µM. In the case of CCN1CCN(CC(=O)Nc2nc3ccc(NCc4ccc(Br)cc4)cc3s2)CC1, the GI50 was 1.74 µM and the TGI was 4.51 µM. O=C1NC(=NCc2cccs2)O/C1=C\c1ccc2ncccc2c1 showed a GI50 of 3.41 µM and a TGI of 13.9 µM. In the case of CNS(=O)(=O)Nc1nccc(Cc2c(C)c3ccc(Oc4ncccn4)cc3oc2=O)c1F, the GI50 was 3.46 µM and > 5.44 µM and the TGI was 82.6 µM and > 10 µM. O=c1c(Oc2ccc(F)cc2F)cc2cnc(NC3CCOCC3)nc2n1C1CC1 gave a GI50 of over 25 µM and a TGI of over 25 µM. COc1ccc(-n2c(=O)c3ccccc3n(Cc3ccc(C(=O)NO)cc3)c2=O)cc1 gave a GI50 of 1.44 µM and a TGI of 3.49 µM. Nc1cc(C(F)(F)F)c(-c2nc(N3CCOCC3)nc(N3CCOCC3)n2)cn1 showed a GI50 of 0.18 µM and a TGI of 0.897 µM. CCN1CCN(c2ccc(NC(=O)Nc3ccc4c(ccn4-c4ccnc(C(=O)NC)c4)c3)cc2C(F)(F)F)CC1 showed a GI50 of over 14.3 µM and a TGI of over 14.3 µM. CN1CCN(C(=O)/C=C/c2ccc([N+](=O)[O-])o2)CC1 gave a GI50 of 12.1 µM and a TGI of 28.5 µM. Molecule COc1cc(/C=C/C(=O)c2nc3cc(F)ccc3nc2C)cc(OC)c1OC has a GI50 of 2.75 µM and a TGI of over 100 µM. Molecule O=C1[C@H](Cc2ccc(O)cc2)N2C(=O)CCN(C(=O)NCc3ccccc3)[C@H]2CN1Cc1cccc2ccccc12 has a GI50 of 5.66 µM and a TGI of 23.2 µM. N#C[Se]CCN1C(=O)c2ccccc2C1=O showed a GI50 of 2.01 µM and a TGI of 6.99 µM. COc1ccc(-c2c(Nc3ccccn3)nc3c(C4=CCCCC4)c(-c4ccccc4)[nH]n3c2=O)cc1 showed a GI50 of 1.91 µM and a TGI of 8.65 µM. COc1ccc([C@@H]2[C@@H](Oc3ccccc3)C(=O)N2c2cc(OC)c(OC)c(OC)c2)cc1F showed a GI50 of 0.111 µM and a TGI of over 100 µM. With OCc1ccc(N2CCc3ccc(F)cc3C2)cc1Cl the GI50 was under 0.0129 µM and the TGI was 0.0351 µM. CCOC(=O)C#Cc1c(C(=O)OCC)nnn1[C@@H]1O[C@H](COC)[C@@H](OC)[C@H]1OC was tested, and the GI50 was 2.13 µM and the TGI was 5.43 µM. Oc1ccc(CSc2nnc(-c3ccccc3)n2-c2ccccc2)c2cccnc12 gave a GI50 of 0.497 µM and a TGI of 6.82 µM. Work on Cc1ccc(-c2nc([P+](c3ccccc3)(c3ccccc3)c3ccccc3)c(N3CCOCC3)o2)cc1 yielded a GI50 of 0.248 µM and a TGI of 0.87 µM. CC(C)c1ccc2c(c1)CCC1C2CCCC1(C)NCc1ccccc1 (configuration not stated) was tested, and the GI50 was 1.9 µM and the TGI was 4.16 µM. Work on COc1cc(NC(=O)COc2ccccc2)c(C(N)=O)cc1OC yielded a GI50 of 0.848 µM and a TGI of 72.1 µM. Work on O=C(O)CSc1cc(NS(=O)(=O)c2ccc(Br)cc2)c2ccccc2c1O yielded a GI50 of 1.87 µM and a TGI of 4.34 µM. For Oc1c(Br)cc(Cl)cc1C(c1cc(Cl)cc(Br)c1O)C(Cl)(Cl)Cl, the GI50 was 2.2 µM and the TGI was 7.25 µM. FC(F)(F)c1cccc(CNC2CCN(CCc3ccccc3)CC2)c1 showed a GI50 of 13.5 µM and a TGI of 30.2 µM. CN1CCN(c2ccc(NC(=O)Nc3ccc4c(ccn4-c4cccc(C(N)=O)n4)c3)cc2C(F)(F)F)CC1 was tested, and the GI50 was 4.3 µM and the TGI was 12.1 µM. In the case of C/C(=C\c1csc(C)n1)[C@@H]1C[C@@H]2O[C@]2(C)CCC[C@H](C)[C@H](O)[C@@H](C)C(=O)C(C)(C)[C@@H](O)CC(=O)N1, the GI50 was 0.000233 µM and the TGI was 0.00058 µM. COc1cc(/C=C/c2cc(/C=C/c3ccc(O)c(OC)c3)n(C(=O)Nc3ccc(C)cc3)n2)ccc1O gave a GI50 of 0.301 µM and a TGI of 1.71 µM.
